One may read the IC50 as the concentration at which inhibition is half-maximal.

Like-named read-outs stand apart in the source and are kept apart here.

The target in the assay is GABAA receptor ([35S]-TBPS binding, rat brain cortical membranes). Kind of assay: Steroid inhibition of [35S]-TBPS binding. Particulars: in the presence of 5 mM GABA. The method, then: [^35S]-t-Butylbicyclophosphorothionate (TBPS) binding assays using rat brain cortical membranes in the presence of 5 mM GABA has been described (Gee et al, J. Pharmacol. Exp. Ther. 1987, 241, 346-353; Hawkinson et al, Mol. Pharmacol. 1994, 46, 977-985; Lewin, A. H et al., Mol. Pharmacol. 1989, 35, 189-194).
Briefly, cortices are rapidly removed following decapitation of carbon dioxide-anesthetized Sprague-Dawley rats (200-250 g). The cortices are homogenized in 10 volumes of ice-cold 0.32 M sucrose using a glass/teflon homogenizer and centrifuged at 1500×g for 10 min at 4° C. The resultant supernatants are centrifuged at 10,000×g for 20 min at 4° C. to obtain the P2 pellets. The P2 pellets are resuspended in 200 mM NaCl/50 mM Na—K phosphate pH 7.4 buffer and centrifuged at 10,000×g for 10 min at 4° C. This washing procedure is repeated twice and the pellets are resuspended in 10 volumes of buffer. Aliquots ([…]) of the membrane suspensions are incubated with 3 nM [^35S]-TBPS and […] aliquots of test drug dissolved in dimethyl sulfoxide (DMSO) (final 0.5%) in the presence of 5 mM GABA. The incubation is brought to a final volume of 1.0 mL with buffer. Nonspecific binding is determined in the presence of […] and ranged from 15 to 25%. Following a 90 min incubation at room temp, the assays are terminated by filtration through glass fiber filters (Schleicher and Schuell No. 32) using a cell harvester (Brandel) and rinsed three times with ice-cold buffer. Filter bound radioactivity is measured by liquid scintillation spectrometry. Non-linear curve fitting of the overall data for each drug averaged for each concentration is done using Prism (GraphPad). […] The concentration of test compound producing 50% inhibition (IC50) of specific binding and the maximal extent of inhibition (Imax) are determined for the individual experiments with the same model used for the overall data and then the means±SEM.s of the individual experiments are calculated.
Various compounds are or can be screened to determine their potential as modulators of [^35S]-TBPS binding in vitro. These assays are or can be performed in accordance with the above.

Setting [1] is: Table II-2, 3 nM [35S]-TBPS, read-out: TBPS IC50.
Where [2] appears, read: Table I-1, 3 nM [35S]-TBPS, read-out: TBPS binding IC50.

As for `CC[C@]12CC[C@@](C)(O)C[C@H]1CC[C@H]1[C@@H]3CC[C@H](C(=O)Cn4cc(C#N)cn4)[C@@]3(C)CC[C@@H]12`, the IC50 under setting [1] was under 10 nM. The same measure, in the same setting: the value for `CC[C@]12CC[C@@](C)(O)C[C@H]1CC[C@H]1[C@@H]3CC[C@H](C(=O)Cn4nnc5ccc(OC)cc54)[C@@]3(C)CC[C@@H]12` (single isomer, unassigned) [II-M2] was under 10 nM; that for `CC[C@]12CC[C@@](C)(O)C[C@H]1CC[C@H]1[C@@H]3CC[C@H](C(=O)Cn4nnc5cc(OC)ccc54)[C@@]3(C)CC[C@@H]12` (single isomer, unassigned) [II-M2a] was under 10 nM. The same measure, in the same setting: the value for `CC[C@]12CC[C@@](C)(O)C[C@H]1CC[C@H]1[C@@H]3CC[C@H](C(=O)Cn4nc5ccc(OC)cc5n4)[C@@]3(C)CC[C@@H]12` (single isomer, unassigned) [II-M2b] was under 10 nM; that for `CCOC[C@@]1(O)CC[C@@]2(CC)C(CC[C@@H]3[C@@H]2CC[C@]2(C)[C@@H](C(=O)Cn4nnc(C)n4)CC[C@@H]32)C1` (stereo in doubt) [II-77, 1-((3R,5R,8S,9S,10S,13S,14S,17S)-3-(ethoxymethyl)-10-ethyl-3-hydroxy-13-methylhexadecahydro-1H-cyclopenta[a]phenanthren-17-yl)-2-(5-methyl-2H-tetrazol-2-yl)ethan-1-one] was 10 to 100 nM. `CN(CC(=O)[C@H]1CC[C@H]2[C@@H]3CC[C@]4(C)C[C@](C)(O)CC[C@]4(C)[C@H]3CC[C@]12C)c1ccccc1` [I-A2, 1-((3R,5R,8S,9S,10R,13S,14S,17S)-3-hydroxy-3,5,10,13-tetramethylhexadecahydro-1H-cyclopenta[a]phenanthren-17-yl)-2-(methyl(phenyl)amino)ethan-1-one]: the IC50 under setting [2] was 100 to 1000 nM. The same measure, in the same setting: the value for `C[C@@]1(O)CC[C@]2(C)[C@H]3CC[C@]4(C)[C@@H](C(=O)CNc5ccccc5)CC[C@H]4[C@@H]3CC[C@]2(C)C1` [I-A3, 1-((3R,5R,8S,9S,10R,13S,14S,17S)-3-hydroxy-3,5,10,13-tetramethylhexadecahydro-1H-cyclopenta [a]phenanthren-17-yl)-2-(phenylamino)ethan-1-one] was 100 to 1000 nM; that for `C[C@@]1(O)CC[C@]2(C)[C@H]3CC[C@]4(C)[C@@H](C(=O)Cn5cc(C#N)cn5)CC[C@H]4[C@@H]3CC[C@]2(C)C1` [I-A4, 1-(2-((3R,5R,8S,9S,10R,13S,14S,17S)-3-hydroxy-3,5,10,13-tetramethylhexadecahydro-1H-cyclopenta[a]phenanthren-17-yl)-2-oxoethyl)-1H-pyrazole-4-carbonitrile] was 100 to 1000 nM; that for `CC(=O)[C@H]1CC[C@H]2[C@@H]3CC[C@]4(C)C[C@@](C)(O)CC[C@]4(C)[C@H]3CC[C@]12C` [I-A5, 1-((3S,5R,8S,9S,10R,13S,14S,17S)-3-hydroxy-3,5,10,13-tetramethylhexadecahydro-1H-cyclopenta[a]phenanthren-17-yl)ethan-1-one] was 1000 to 10000 nM. The same measure, in the same setting: with `C[C@@]1(O)CC[C@]2(C)[C@H]3CC[C@]4(C)[C@@H](C(=O)Cn5cc6ccncc6n5)CC[C@H]4[C@@H]3CC[C@]2(C)C1` [I-A6, 1-((3R,5R,8S,9S,10R,13S,14S,17S)-3-hydroxy-3,5,10,13-tetramethylhexadecahydro-1H-cyclopenta[a]phenanthren-17-yl)-2-(2H-pyrazolo[3,4-c]pyridin-2-yl)ethan-1-one] the figure was 100 to 1000 nM; with `C[C@@]1(O)CC[C@]2(C)[C@H]3CC[C@]4(C)[C@@H](C(=O)Cn5ncc6ccncc65)CC[C@H]4[C@@H]3CC[C@]2(C)C1` [I-A7, 1-((3R,5R,8S,9S,10R,13S,14S,17S)-3-hydroxy-3,5,10,13-tetramethylhexadecahydro-1H-cyclopenta[a]phenanthren-17-yl)-2-(1H-pyrazolo[3,4-c]pyridin-1-yl)ethan-1-one], 100 to 1000 nM. Still for that read-out and setting: the value for `Cc1nnnn1CC(=O)[C@H]1CC[C@H]2[C@@H]3CC[C@]4(C)C[C@](C)(O)CC[C@]4(C)[C@H]3CC[C@]12C` [I-A8, 1-((3R,5R,8S,9S,10R,13S,14S,17S)-3-hydroxy-3,5,10,13-tetramethylhexadecahydro-1H-cyclopenta[a]phenanthren-17-yl)-2-(5-methyl-1H-tetrazol-1-yl)ethan-1-one] was 100 to 1000 nM. Regarding `Cc1nnn(CC(=O)[C@H]2CC[C@H]3[C@@H]4CC[C@]5(C)C[C@](C)(O)CC[C@]5(C)[C@H]4CC[C@]23C)n1` [I-A9, 1-((3R,5R,8S,9S,10R,13S,14S,17S)-3-hydroxy-3,5,10,13-tetramethylhexadecahydro-1H-cyclopenta[a]phenanthren-17-yl)-2-(5-methyl-2H-tetrazol-2-yl)ethan-1-one], under setting [2], the IC50 was 100 to 1000 nM.

Consider `CC(=O)[C@H]1CC[C@H]2[C@@H]3CC[C@]4(C)C[C@](C)(O)CC[C@]4(C)[C@H]3CC[C@]12C` [I-B6, 1-((3R,5R,8S,9S,10R,13S,14S,17S)-3-hydroxy-3,5,10,13-tetramethylhexadecahydro-1H-cyclopenta [a]phenanthren-17-yl)ethan-1-one], for which the IC50 under setting [2] was 100 to 1000 nM. Regarding `CC[C@]12CC[C@@](C)(O)C[C@H]1CC[C@H]1[C@@H]3CC[C@H](C(=O)N4CC[C@@H](c5ccccc5)C4)[C@@]3(C)CC[C@@H]12` [II-1], the half-maximal inhibitory concentration (IC50) under setting [1] lay in the range of 10 to 100 nM.

For the compound `CC[C@]12CC[C@@](C)(O)C[C@H]1CC[C@H]1[C@@H]3CC[C@H](C(=O)Cn4nccn4)[C@@]3(C)CC[C@@H]12` [II-13, 1-((3R,5R,8S,9S,10S,13S,14S,17S)-10-ethyl-3-hydroxy-3,13-dimethylhexadecahydro-1H-cyclopenta[a]phenanthren-17-yl)-2-(2H-1,2,3-triazol-2-yl)ethan-1-one], the 50% inhibitory concentration (IC50) under setting [1] was under 10 nM. Regarding `CC[C@]12CC[C@@](C)(O)C[C@H]1CC[C@H]1[C@@H]3CC[C@H](C(=O)Cn4ccnn4)[C@@]3(C)CC[C@@H]12` [II-13a, 1-((3R,5R,8S,9S,10S,13S,14S,17S)-10-ethyl-3-hydroxy-3,13-dimethylhexadecahydro-1H-cyclopenta[a]phenanthren-17-yl)-2-(1H-1,2,3-triazol-1-yl)ethan-1-one], under setting [1], the IC50 is under 10 nM. For the compound `CC[C@]12CC[C@@](C)(O)C[C@H]1CC[C@H]1[C@@H]3CC[C@H](C(=O)Cn4nnc(C)n4)[C@@]3(C)CC[C@@H]12` [II-14, 1-((3R,5R,8S,9S,10S,13S,14S,17S)-10-ethyl-3-hydroxy-3,13-dimethylhexadecahydro-1H-cyclopenta[a]henanthren-17-yl)-2-(5-methyl-2H-tetrazol-2-yl)ethan-1-one], the concentration for half-maximal inhibition (IC50) under setting [1] is under 10 nM. In the case of `CC[C@]12CC[C@@](C)(O)C[C@H]1CC[C@H]1[C@@H]3CC[C@H](C(=O)Cn4nnnc4C)[C@@]3(C)CC[C@@H]12` [II-14a, 1-((3R,5R,8S,9S,10S,13S,14S,17S)-10-ethyl-3-hydroxy-3,13-dimethylhexadecahydro-1H-cyclopenta[a]phenanthren-17-yl)-2-(5-methyl-1H-tetrazol-1-yl)ethan-1-one], the IC50 under setting [1] was under 10 nM.

The record behind these values is patent US20210101928A1 (Sage Therapeutics, Inc., priority 2017, published 2021).
